From patent US11035852B2, “Identifying drug candidates for treating polycystic kidney disease using organoids generated from primary cells” (UMC Utrecht Holding B.V., priority 2011, dated 2021)
Entries after “also recorded” stand apart in the source; their conditions may differ.

How the values were obtained:
[1] = biological target: T1, CFTR (Homo sapiens, UniProt P13569); details: cited from earlier work; for Ki: CFTR blocker, read-out: Potency: Ki
Target sequence in this assay (P13569 whole entry): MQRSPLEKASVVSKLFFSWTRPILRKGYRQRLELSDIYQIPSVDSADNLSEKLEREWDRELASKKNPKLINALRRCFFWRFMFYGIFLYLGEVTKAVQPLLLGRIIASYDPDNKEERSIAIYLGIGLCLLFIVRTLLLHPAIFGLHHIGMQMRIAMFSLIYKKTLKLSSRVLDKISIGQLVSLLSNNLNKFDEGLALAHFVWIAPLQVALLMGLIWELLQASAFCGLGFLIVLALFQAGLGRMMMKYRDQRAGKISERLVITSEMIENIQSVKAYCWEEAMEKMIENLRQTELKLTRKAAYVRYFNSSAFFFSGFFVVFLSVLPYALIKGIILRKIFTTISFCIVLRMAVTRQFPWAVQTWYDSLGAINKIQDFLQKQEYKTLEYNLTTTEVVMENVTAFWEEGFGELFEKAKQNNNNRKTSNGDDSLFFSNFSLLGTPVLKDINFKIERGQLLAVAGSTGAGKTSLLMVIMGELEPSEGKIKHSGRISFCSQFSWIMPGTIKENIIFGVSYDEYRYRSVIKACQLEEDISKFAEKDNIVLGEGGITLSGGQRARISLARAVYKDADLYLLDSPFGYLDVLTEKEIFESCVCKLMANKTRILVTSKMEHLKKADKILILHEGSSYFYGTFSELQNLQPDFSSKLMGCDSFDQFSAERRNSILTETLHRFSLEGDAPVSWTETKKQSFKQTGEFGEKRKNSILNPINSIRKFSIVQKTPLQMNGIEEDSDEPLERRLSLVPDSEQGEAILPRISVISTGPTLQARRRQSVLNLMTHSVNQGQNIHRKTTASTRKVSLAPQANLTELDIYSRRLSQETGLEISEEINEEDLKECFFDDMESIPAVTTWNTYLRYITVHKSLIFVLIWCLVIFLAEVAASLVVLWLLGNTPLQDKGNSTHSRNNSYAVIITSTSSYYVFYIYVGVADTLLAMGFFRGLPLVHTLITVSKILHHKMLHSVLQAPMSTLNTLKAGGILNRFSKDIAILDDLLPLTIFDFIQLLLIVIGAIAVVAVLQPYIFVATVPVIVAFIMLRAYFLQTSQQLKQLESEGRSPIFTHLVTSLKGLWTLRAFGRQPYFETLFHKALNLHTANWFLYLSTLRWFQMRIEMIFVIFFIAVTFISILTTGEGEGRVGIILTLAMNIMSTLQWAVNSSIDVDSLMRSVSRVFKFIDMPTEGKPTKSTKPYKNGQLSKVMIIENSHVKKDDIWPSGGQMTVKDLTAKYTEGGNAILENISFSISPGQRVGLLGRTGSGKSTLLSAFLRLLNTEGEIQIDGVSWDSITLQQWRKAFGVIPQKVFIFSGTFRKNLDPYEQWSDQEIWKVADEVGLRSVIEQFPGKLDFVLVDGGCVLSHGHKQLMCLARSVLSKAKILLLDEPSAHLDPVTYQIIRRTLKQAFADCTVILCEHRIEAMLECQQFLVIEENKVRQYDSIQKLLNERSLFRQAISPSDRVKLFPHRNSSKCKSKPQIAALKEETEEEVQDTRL

[2] = biological target: T1, CFTR; type: cell-based
Target sequence in this assay (P13569 whole entry, looked up): as the sequence (P13569 whole entry) above

[3] = cited from earlier work
[4] = test system: CFTR; experiment: Organoid swelling on compound addition (organoid origin not stated; FIG. 7, FIG. 32); type: cell-based
[5] = test system: CFTR; details: CFTR potentiator; cited from earlier work
[6] = biological target: CFTR (Mus musculus, UniProt P26361); experiment: Forskolin-induced swelling (FIS) of murine wild-type small intestinal organoids; details: live cell microscopy
CFTR (Mus musculus, UniProt P26361), sequence (P26361 whole entry): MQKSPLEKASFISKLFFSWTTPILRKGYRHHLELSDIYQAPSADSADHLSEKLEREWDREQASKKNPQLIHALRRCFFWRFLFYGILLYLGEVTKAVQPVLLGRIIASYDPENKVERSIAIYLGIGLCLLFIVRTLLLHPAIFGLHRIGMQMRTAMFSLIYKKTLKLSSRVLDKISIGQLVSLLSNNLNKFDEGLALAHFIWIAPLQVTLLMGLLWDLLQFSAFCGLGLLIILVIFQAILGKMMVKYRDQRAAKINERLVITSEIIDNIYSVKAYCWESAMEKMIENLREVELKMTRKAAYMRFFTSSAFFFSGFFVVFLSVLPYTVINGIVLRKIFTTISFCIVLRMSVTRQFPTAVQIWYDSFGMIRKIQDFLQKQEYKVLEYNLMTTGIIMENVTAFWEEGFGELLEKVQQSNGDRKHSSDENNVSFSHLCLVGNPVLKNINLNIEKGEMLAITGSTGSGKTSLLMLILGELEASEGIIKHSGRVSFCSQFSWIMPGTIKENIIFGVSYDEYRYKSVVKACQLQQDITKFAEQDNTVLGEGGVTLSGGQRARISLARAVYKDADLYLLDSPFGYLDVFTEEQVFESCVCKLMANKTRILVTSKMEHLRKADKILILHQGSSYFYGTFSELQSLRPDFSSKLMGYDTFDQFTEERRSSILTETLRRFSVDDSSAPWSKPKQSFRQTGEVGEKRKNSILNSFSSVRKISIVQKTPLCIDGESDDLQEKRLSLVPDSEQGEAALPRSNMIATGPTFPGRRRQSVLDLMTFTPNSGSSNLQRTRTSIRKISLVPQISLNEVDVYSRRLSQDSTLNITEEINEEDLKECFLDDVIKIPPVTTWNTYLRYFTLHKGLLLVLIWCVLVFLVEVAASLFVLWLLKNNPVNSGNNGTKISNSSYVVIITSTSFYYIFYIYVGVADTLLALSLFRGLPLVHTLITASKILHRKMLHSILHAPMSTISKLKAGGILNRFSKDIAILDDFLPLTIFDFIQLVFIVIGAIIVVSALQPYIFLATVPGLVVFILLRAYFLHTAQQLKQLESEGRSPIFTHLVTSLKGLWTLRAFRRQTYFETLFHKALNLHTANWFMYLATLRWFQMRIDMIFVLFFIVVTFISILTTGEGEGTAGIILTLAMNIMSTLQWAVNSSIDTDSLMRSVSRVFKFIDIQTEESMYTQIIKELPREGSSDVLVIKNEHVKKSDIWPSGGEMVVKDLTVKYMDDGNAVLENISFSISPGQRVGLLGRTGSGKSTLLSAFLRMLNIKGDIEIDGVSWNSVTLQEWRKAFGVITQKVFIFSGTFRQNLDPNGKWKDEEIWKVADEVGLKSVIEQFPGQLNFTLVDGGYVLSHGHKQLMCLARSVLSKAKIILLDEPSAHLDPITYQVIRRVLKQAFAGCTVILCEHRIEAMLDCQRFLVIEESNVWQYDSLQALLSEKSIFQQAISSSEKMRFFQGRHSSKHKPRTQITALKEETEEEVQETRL

SMILES | Ki [1] [nM] | Organoid swelling on compound addition [4] | also measured
O=C(O)c1ccc(/C=C2/SC(=S)N(c3cccc(C(F)(F)F)c3)C2=O)cc1 [B1, 4-[4-Oxo-2-thioxo-3-(3-trifluoromethyl-phenyl)-thiazolidin-5-ylidenemethyl]-benzoic acid] | 300 | – | Onset of inhibition ([1]; some cell types (eg. T84 cells), requiring prolonged incubation): Slow onset of inhibition; Effect of CFTR inhibitors on forskolin-stimulated swelling ([2]; Example 2, human healthy control organoids, 3 hours pre-incubation, 50 μM): reduced
O=C1/C(=C/c2ccc(-c3nn[nH]n3)cc2)SC(=S)N1c1cccc(C(F)(F)F)c1 [B7, 5-[[4-(2h-tetrazol-5-yl)phenyl]methylene]-2-thioxo-3-[3-(trifluoromethyl)phenyl]-4-thiazolidinone] | ~1000 | – | Water solubility relative to Inh.-172 [3]: more water soluble than Inh.-172
O=C(O)c1ccc(/C=C2\SC(=O)N(c3cccc(C(F)(F)F)c3)C2=O)cc1 [B8, 4-[[3-[3-(trifluoromethyl)phenyl]-2,4-dioxo-5-thiazolidinyli-dene]methyl]benzoic acid] | ~1000 | – | Water solubility relative to Inh.-172 [3]: more water soluble than Inh.-172
O=C1c2c(O)cc(O)cc2OCC1c1ccc(O)cc1 (stereo not shown) [P6, 5,7,Dihydroxy-3-(4-hydroxy-phenyl)-chroman-4-one] | – | rapid organoid swelling | Potency: Ks [5]: Reference #** 8 Name: Genistein (discontinued— available from Sigma #G6649) Potency: Ks = 10 to 30 microM Solvent: DMSO
NCCc1ccc(O)c(O)c1 [dopamine] | – | forskolin-like swelling | –
CNC[C@H](O)c1ccc(O)c(O)c1 [epinephrine] | – | forskolin-like swelling | –
C=C[C@@]1(C)CC(=O)[C@]2(O)[C@@]3(C)[C@@H](O)CCC(C)(C)[C@@H]3[C@H](O)[C@H](OC(C)=O)[C@@]2(C)O1 [forskolin, (3R,4aR,5S,6S,6aS,10S,10aR,10bS)-6,10,10b-trihydroxy-3,4a,7,7,10a-pentamethyl-1-oxo-3-vinyldodecahydro-1H-benzo[f]chromen-5-yl acetate] | – | – | Organoid swelling on forskolin addition [6]: rapid expansion of the lumen and total organoid surface area; also recorded: dose-dependent relation between forskolin and increase of surface area over time; Organoid swelling induced by stimulus ([2]; human healthy control organoids): rapid forskolin-stimulated swelling; Increase in organoid size ([2]; human organoids, in the space of 120 minutes (FIG. 8)): more than double in size
CC(NCCc1ccc(O)cc1)C(O)c1ccc(O)cc1 (stereo not shown) [ritodrine] | – | forskolin-like swelling | –
CC(C)(C)NCC(O)c1ccc(O)c(CO)c1 (stereo not shown) [salbutamol] | – | forskolin-like swelling | –
